Reference: patent publication US7109364B2, “Group of anti-cancer compounds with specific structure and their production method” (priority 2000, dated 2006)
Values after ≈ are worked out from the molar mass of the structure shown. Read-outs that look alike come from different tables or passages of the source. Blank lines part the entries; values can stand above or below the compound they belong to.

Tests used:
[1] = tested on: K562 human leukemia cell line; assay: In vitro anti-cancer efficacy, K562, trypan blue dye exclusion, 48 hours; type: cell-based; details: for IC50 / IC90: Homo sapiens, K562; for IC50: read-out: K562 IC50; for IC90: read-out: K562 IC90
Protocol: (§1) The above compounds were dissolved in DMSO at stock concentration of 10 mg/ml and stored at 4° C. Before each experiment they were diluted to desired concentration with serum-free RPMI 1640 medium
1. K562 human leukemia cell line: K562 cells were maintained in RPMI 1640 medium with 5% fetal bovine serum at 37° C. under 5% CO2 atmosphere. 4×10^4 cells/well were plated on 96-well plate. After treatment with the test compounds and solvent control (DMSO) for 48 hours, numbers of live cells were counted by trypan blue dye exclusion.
(§2) Reagents and Methods: same as in Experiment 1.

[2] = tested on: B16 mouse melanoma cell line; assay: In vitro anti-cancer efficacy, B16, SRB method, 48 hours; type: cell-based; details: for IC50 / IC90: Mus musculus; for IC50: read-out: B16 IC50; for IC90: read-out: B16 IC90
Protocol: as §1
2. B16 mouse melanoma cell line: B16 cells were maintained under the same condition as above. 2×10^4 cells/well were plated on 48-well plate and left for 12 hours for attachment. Cells were then treated with the test compounds and solvent control for 48 hours. Numbers of live cells were determined by SRB method. Briefly, cells were fixed with 50 μl/well 15% TCA for 1 hour, and then washed three times with double-distilled water. After drying 50 μl/well 1% SRB dye was added and reacted for 10 minutes. Plate was washed with 1% acetic acid. 0.2 ml Tris buffer (pH 9.6) was added and OD510 was recorded.
as §2

[3] = tested on: HAC cells; type: in vivo; details: for Body Weight after treatment / Extension Rate (of life span) / Survival Time: test 0.4 g/kg i.g. daily till death, 5-FU 25 mg/kg i.g. day 1, 3, 5
Protocol: 30 female ICR strain mice, weighing 18–21 g, were randomly divided into 3 groups of 10 each. 0.2 ml of HAC cell suspension (10^7 cells/ml) was injected intraperitoneally (i.p.) into all animals. The test group was given 2-(12-Methyl-tridecyl)-5-mercapto-1,3,4-thiadiazole at 0.4 g/kg i.g. daily till death. The positive control group was given 5-Flurouracil (5-Fu) i.g. at 25 mg/kg on day 1, 3, and 5. The negative control group was given N.S. at 20 ml/kg daily as in test groups. The length of survival of each group was recorded and rate of extension of life span was calculated and subject to t test.

[4] = tested on: Mouse cervical carcinoma U14; assay: In vivo anti-cancer efficacy, solid tumor model; details: for Tumor W.: ± SD
Source text: Mouse cervical carcinoma U14 model was used to compare in vivo anti-cancer efficacy of 15-methyl-2-hexadecenoic acid, 13-methyl-tetradecanoic acid and the chemotherapy drug cytoxan (CTX).
40 male ICR strain mice, weighing 19–22 g, were randomly divided into 4 groups of 10 each. U14 cervical carcinoma mass (about 2 mm^3 each) was transplanted subcutaneously into the right armpits of all animals following standard procedure. The test group was given 15-methyl-2-hexadecenoic acid and 13-methyl-tetradecanoic acid at 0.4 g/kg, respectively, intragastrically (i.g.) daily for 11 days. The positive control group was given a single dose of CTX i.g. (25 mg/kg) on day 1. Negative control group was given normal saline (N.S.) at 0.2 ml/10 g daily for 11 days. On the 12th day, all mice were sacrificed and the tumors were isolated and weighed. The tumor inhibition rate (TIR) was calculated and subject to t test.

[5] = tested on: human breast carcinoma MCF7ras; type: in vivo; details: for Body weight D1 / Body weight D23: MCF7ras nude mice; for Body weight D1: day 1 (baseline); for Body weight D1 / Tumor W.: X ± SD; for Body weight D23 / TIR (tumor inhibition rate, (C-T)/C percentage) / Tumor W.: day 23, test 400 mg/kg gavage daily, CTX 25 mg/kg
Protocol: Thirty female Balb/c-nu/nu athymic mice, 6 weeks old, weighing 18–22 g, were housed in specific pathogen free (SPF) condition throughout the course of the experiment.
Subcutaneous transplantation of human breast carcinoma MCF7ras was carried out under aseptic condition. Tumor mass was cut into fragments (approximately 0.18×0.18×0.20 mm in size), and injected s.c. into the right mammary fat pad of each animal with a trocar. The mice were randomized into control and test groups of ten mice each. The day after transplantation, the mice in the test group were given through gavage 13-methyl-2-tetradecenoic acid at 400 mg/kg daily. The mice in two control groups were administered with CTX at 25 mg/kg and N.S. at 0.2 ml/10 g. All animals were sacrificed on day 23. The body weights and tumor weights were measured. The tumor inhibition rates (TIR) were determined by comparing the mean tumor weight of the test groups (T) with that of the control group (C) and expressed as a (C-T)/C percentage, and were analyzed by Student's test for statistical significance.

[6] = tested on: Phagocytic Function of Reticuloendothelial System; type: in vivo, mouse (ICR strain)
Protocol: 50 female ICR strain mice, weighing 19–24 g, were randomly divided into 5 groups of 10 each. One group was given N.S. at 20 ml/kg i.g. as a normal control. A positive control group was given CTX i.g. at 25 mg/kg on day 1 and 6. A third group was given N-(13-methyl-tetradecanoyl)-4amino-1,2-benzenediol (Sample) only at 400 mg/kg i. g. The remaining two groups were given both CTX (25 mg/kg on day 1 and 6) and Sample (100 mg/kg and 400 mg/kg, respectively). All treatments except CTX were administered daily for 9 days. 30 minutes after the last administration, 0.15 ml Yidege (1:10) was injected into the tail vein of each mouse. 1 minute and 5 minutes after, blood was drawn and 20 μl serum was mixed with 0.1% […]. OD680 was measured and the clearance index K=(1 gOD1–1 gOD2)/(t2−t1) was calculated.

[7] = tested on: Serum Hemolysinogenesis; type: in vivo, mouse (ICR strain)
Protocol: 50 male ICR strain mice, weighing 20–23 g, were randomly divided into 5 groups of 10 each. The method of administration in each group was the same as above phagocytic function). However, on the 6th day after administration, 0.2 ml 3:5 (VN) sheep red blood cell (RBC) suspension was injected i.p. into each mouse. 4 days later (day 10), blood was drawn from all animals and serum was prepared and then diluted 600 times. 1 ml diluted serum was mixed with 0.5 ml 10% sheep RBC suspension. N.S. was used as blank control. All samples were incubated at 37° C. for 30 minutes, and centrifuged (2000 rev/min) for 5 minutes. The supernatant was collected for measurement of OD540 and HC50 was calculated.

[8] = tested on: Delayed Hypersensitivity; assay: Delayed hypersensitivity (sheep RBC); type: in vivo, mouse (ICR strain)
Protocol: 50 female ICR strain mice, weighing 18–21 g, were randomly divided into 5 groups of 10 each. The method of administration in each group was the same as above phagocytic function). However, on the 5th day after administration, each mouse was injected with 50 μl 10% sheep RBC suspension through tail vein. 4 days later (day 9), each mouse was injected intradermally with 20 μl 10 sheep RBC suspension or normal saline into metatarus of the left or right hind limbs, respectively. The digital thickness of each mouse was measured 24 hours later, and the difference in thickness between left and right digits was subject to t test analysis.

[9] = type: in vivo, mouse (ICR strain); details: single agent i.g.: Sample (N-(13-methyl-tetradecanoyl)-4-amino-1,2-benzenediol) 0.4 g/kg; CTX 25 mg/kg
Source text: The mice were sacrificed after delayed hypersensitivity test above and the thymus and […] were collected and weighed.

[10] = tested on: ICR strain mice; assay: Acute toxicity, gavage administration; type: in vivo, mouse (ICR strain); details: 2.5 g/kg twice a day, 14 days monitoring
Protocol: The acute toxicity tests were assessed for two administration routes, through gavage and subcutaneous injection.
Thus, the acute toxicity test was conducted in twenty ICR strain mice, weighing 18–20 g. The Sample was given through gavage at dosage of 2.5 g/kg, twice a day. Continuous monitoring was made for 14 days.

[11] = day 12, test compounds 0.4 g/kg i.g. daily 11 days, CTX 25 mg/kg i.g. single dose
[12] = single agent i.g.: Sample (N-(13-methyl-tetradecanoyl)-4-amino-1,2-benzenediol) 0.4 g/kg, CTX 25 mg/kg, X ± SD
[13] = Table 2, unit inferred, methods same as in Experiment 1

IC50 ([1]; Table 1, 48 hours): 24.6 mg/L (≈ 95.9 µM)
IC90 ([1]; Table 1, 48 hours): 37.5 mg/L (≈ 146 µM)
IC50 ([2]; Table 1, 48 hours): 20.4 mg/L (≈ 79.6 µM)
IC90 ([2]; Table 1, 48 hours): 35.6 mg/L (≈ 139 µM)
melting point: 37 to 39 °C
Compound: CC(C)(C)CCCCCCCCCCCC(=O)O [Compound 31, 13,13-Dimethyl-tetradecanoic acid]

Compound: CC(C)CCCCCCCCCCCc1nnc(S)s1 [Compound 30, 2-(12-Methyl-tridecyl)-5-mercapto-1,3,4-thiadazole]
K562 IC50 ([1]; Table 1, 48 hours): 6.10 mg/L
K562 IC90 ([1]; Table 1, 48 hours): 8.75 mg/L
B16 IC50 ([2]; Table 1, 48 hours): 5.16 mg/L
B16 IC90 ([2]; Table 1, 48 hours): 8.05 mg/L
Body Weight before treatment ([3]; HAC mice, X ± SD): 19.6 ± 1.3 g
Body Weight after treatment ([3]; HAC mice): 46.5 ± 6.1 g
Extension Rate (of life span) ([3]; HAC mice): 72.2%
Survival Time ([3]; HAC mice, X ± SD): 16.7 ± 1.8 days

Compound: O=P1(N(CCCl)CCCl)NCCCO1 (centres unmarked) [CTX, cytoxan, reference compound]
Body W. D1 ([4]; U14 mice, day 1 (baseline), X ± SD): 20.6 ± 0.5 g
Body W. D12 ([4]; U14 mice, day 12, test compounds 0.4 g/kg i.g. daily 11 days, CTX 25 mg/kg i.g. single dose): 22.6 ± 1.2 g
TIR (tumor inhibition rate) [4, 11]: 82.5%
Tumor W. [4, 11]: 0.46 ± 0.17 g
Body weight D1 [5]: 20.4 ± 0.4 g
Body weight D23 [5]: 18.6 ± 0.2 g
TIR (tumor inhibition rate, (C-T)/C percentage) [5]: 76.5%
Tumor W. [5]: 0.43 ± 0.15 g
K (clearance index of carbon grain) ([6]; single agent i.g.: Sample (N-(13-methyl-tetradecanoyl)-4-amino-1,2-benzenediol) 400 mg/kg daily 9 days, CTX 25 mg/kg day 1 and 6, X ± SD): 0.0238 ± 0.0161
HC50 [7, 12]: 22.51 ± 4.30
Difference in thickness between left and right palm [8, 12]: 1.25 ± 0.48 mm
Indices of pancreas [9]: 2.287 ± 1.023 mg/10 g avoirdupois
Indices of thymus [9]: 1.387 ± 0.701 mg/10 g avoirdupois

Compound: O=c1[nH]cc(F)c(=O)[nH]1 [Compound 5-FU, 5-Flurouracil, reference compound]
Body Weight after treatment ([3]; HAC mice): 43.4 ± 12.8 g
Extension Rate (of life span) ([3]; HAC mice): 47.4%
Survival Time ([3]; HAC mice, X ± SD): 14.3 ± 1.5 days
Body Weight before treatment ([3]; mouse, in vivo): 19.5 ± 1.2 g

Compound: CC(C)CCCCCCCCCC=CC(=O)O [13-methyl-2-tetradecenoic acid]
Body weight D1 [5]: 20.3 ± 0.5 g
Body weight D23 [5]: 24.4 ± 1.1 g
TIR (tumor inhibition rate, (C-T)/C percentage) [5]: 74.3%
Tumor W. [5]: 0.47 ± 0.31 g

Compound: CC(C)CCCCCCCCCCCC(=O)Nc1ccc(O)c(O)c1 [Compound 1, N-(3,4-Dihydroxyphenyl)-13-methyl tetradecanamide]
IC50 ([1]; Table 1, 48 hours): 4.98 mg/L (≈ 14.2 µM)
IC90 ([1]; Table 1, 48 hours): 10.1 mg/L (≈ 28.9 µM)
IC50 ([2]; Table 1, 48 hours): 5.12 mg/L (≈ 14.6 µM)
IC90 ([2]; Table 1, 48 hours): 9.28 mg/L (≈ 26.6 µM)
effect on the Clearance Index of Carbon grain in normal mouse ([6]; 400 mg/kg i.g., in words): no obvious effect
effects on serum hemolysinogenesis in either normal or immune-compromised mouse ([7]; in words): no obvious effects
inhibitory effect to the delayed hypersensitivity of both normal and CTX-treated mice ([8]; in words): no inhibitory effect

Compound: 15-Methyl-2-hexadecanoic acid [Compound 29]
K562 IC50 [1, 13]: 10.1 mg/L
K562 IC90 [1, 13]: 17.7 mg/L
B16 IC50 [2, 13]: 6.8 mg/L
B16 IC90 [2, 13]: 10.5 mg/L
TIR (tumor inhibition rate) [4, 11]: 81.0%
Tumor W. [4, 11]: 0.50 ± 0.29 g
Body W. D1 ([4]; mouse, in vivo): 20.6 ± 0.7 g
observation after gavage [10]: No major anomaly was observed
LD50 ([10]; mice): > 5000 mg/kg
